In patent US7875270B2, “Treatment solution and method for preventing posterior capsular opacification by selectively inducing detachment and/or death of lens epithelial cells” (Abbott Medical Optics Inc., priority 2002, dated 2011):

Tested on: human retinal-pigmented epithelial cells (RPECs)
Assay: Confluent RPEC monolayers exposed to solutions; MTT cell viability
Type: cell-based
Settings: 28 μM, 112 μM and 224 μM bumetanide, ≦200 mM NaCl, 3 μl of 5N NaOH
Method: As described below, the confluent monolayers of LECs, CEDCs, and RPECs grown in 96-well flat-bottom plates are exposed to varying concentrations of NaCl (an osmolyte) solution. Two hundred μl of NaCl solution (prepared as described below) are added to each well at concentrations of 137 mM, 170 mM, 340 mM, 680 mM, 1360 mM and 2000 mM NaCl, respectively. The solutions have a pH of 8.0±0.4. The concentrations of NaCl correspond to final osmolarities of about 285 to 4000 mOsm/L, respectively.
The primary and first passages of human lens epithelial cells, human corneal endothelial cells, and human retinal-pigmented epithelial cells are cultured. The LECs, the CEDCs, and the RPECs are isolated from post-mortem eyes by using standard techniques of cell isolation and enzyme digestion. See Uebersax E D, Grindstaff R D and Defoe D M Exp Eye Res. 2000 March; 70(3): 381-90; Wagner L M, Saleh S M, Boyle D J, and Takemoto D J. Mol Vis. 2002 Mar. 14; 8: 59-66; Cammarata P R, Schafer G, Chen S W, Guo Z, and Reeves R E. Invest Ophthalmol Vis Sci. 2002 February; 43(2): 425-33; Rakic J M, Galand A, and Vrensen G F. Exp Eye Res. 2000 November; 71(5): 489-94. LECs and CEDCs are cultured in Eagle's minimum essential medium (MEM). RPECs are cultured in Ham's F10 medium, supplemented with 2 mM glutamine, 25 mmol/L Hepes, pH 7.4, 10 U/mL penicillin, and 10 μg/mL streptomycin and 15% heat-inactivated foetal cow serum (FCS). The primary cultured LECs, CEDCs, and RPECs are sub-cultured at 10^4 cells/wells in 96-well flat-bottom plates until they reached 90 to 100% confluence. These cells are grown to confluence in an incubator with a humidified atmosphere of 5% CO2 at 37° C. The cells are kept in a confluent state for overnight before assays.
After treatment, the treated cells are thoroughly washed, and cultured with fresh media for twelve hours before cell viability is assessed. The capability of these cells to survive at the indicated hypertonic stress levels is assessed by an MTT assay 12-24 hours post-exposure.
MTT assay is an assay to assess mitochondria function, performed as described by Mosmann (Mosmann, T. J Immunol Methods. 1983 Dec. 16; 65(1-2): 55-63. The tetrazolium salt 3-(4,5-dimethylthiazol-2-yl)-2,5-diphenyl tetrazolium bromide (MTT; supplied by Sigma Chemical Co.) is dissolved in Phosphate's Balanced Salt (PBS) Solutions at 5 mg/ml and sterilized by passage through a 0.22 μm Millipore filter. MTT stock solution is added to growth media at a ratio of 1 to 10. Cells are incubated with this growth media for three to four hours. In cells that are alive at the time of adding MTT, mitochondrial dehydrogenase cleaves the tetrazolium ring into a dark blue formazan reaction product, which builds up in the cell. MTT-reacted cultures are observed under brightfield microscopy without further processing. Cells in each well are scored as MTT-positive if they are completely filled with reaction product (in the case of unattached cells) or contain many formazan crystals emanating from multiple foci (in the case of attached or spread cells). MTT-reacted cultures are then lysised by dimethyl sulfoxide (DMSO) and read in a Microplate Reader to obtain a measure of cell viability.
Confluent monolayers of RPECs are prepared as described in Example 1. These cells are exposed for ten minutes to 200 μl/well of the solutions comprising increasing concentrations of NaCl (137 mM, 170 mM, 340 mM, 680 mM, 1360 mM and 2000 mM) at varying pH (8.4±0.5 and 10.6±0.5). The solutions of NaCl are prepared as described in Example 1. The pH of the solutions is adjusted with additions of 1 μl and 5 μl of 5N NaOH as described Example 3.
Confluent monolayers of LECs and RPECs are prepared as described in Example 1. […]
Confluent monolayers of LECs, CEDCs and RPECs are prepared as described in Example 1. […]
To assess whether there is any side effect of this treatment on other ocular cells, confluent monolayers of LECs, CEDCs and RPECs are prepared as described in Example 1. […]

## CCCCNc1cc(C(=O)O)cc(S(N)(=O)=O)c1Oc1ccccc1 [bumetanide]
  RPECs killed or removed: less than 20%
